Test results reported in paper PMC7063992, “Opossum Cathelicidins Exhibit Antimicrobial Activity Against a Broad Spectrum of Pathogens Including West Nile Virus” (Frontiers in Immunology, 2020).
Read-outs that look alike come from different tables or passages of the source.

Experiments:
[1] = system: Escherichia coli ATCC 25922; assay: microbe, parasite or virus in culture; format: cell-based; details: E. coli ATCC 25922, MHB, 10^5 CFU/well, 37°C 6 h + 2 h with coloring reagent, OD 450 nm, triplicate
Protocol: (§1) Peptides corresponding to the predicted antimicrobial regions of ModoCath1 (ΔModoCath1, N-VKRTKRGARRGL […]-C), ModoCath5 (ΔModoCath5, N-[…]-C), ModoCath6 (ΔModoCath6, N-[…]-C) and PMAP36 (N-[…] PLGCG-C) were synthesized via solid-phase peptide synthesis and purified via high-performance liquid chromatography using a commercial service (GenScript, Piscataway Township, NJ, United States). The MIC of synthesized peptides was determined against a panel of bacteria comprising 3 gram-positive strains, Staphylococcus aureus ATCC 6538 (ATCC, Manassas, VA, United States), Bacillus cereus ATCC 10876, and Enterococcus faecalis ATCC 29212, and 3 gram-negative strains, Escherichia coli ATCC 25922, Pseudomonas aeruginosa ATCC 27853, and Salmonella typhimurium ATCC 14028. Ampicillin (Sigma Aldrich, St. Louis, MO, United States) and gentamicin sulfate (Sigma Aldrich) were used as controls for antimicrobial activity. The MIC was determined using a colorimetric method specified by the Microbial Viability Assay Kit-WST (Dojindo, Kumamoto, Japan) in accordance with the manufacturer’s protocol and the Clinical and Laboratory Standards Institute (CLSI) guidelines (2018). Briefly, four colonies of each bacterium were inoculated into 5 mL Luria-Bertani (LB) broth medium at 37°C for 4 to 6 h. The cells were washed with sterile saline (0.9% NaCl) twice and seeded in a single well of a 96-well plate at the cell density of 10^5 CFU/well. Subsequently, 180 μL/well of fresh Mueller-Hinton broth (MHB) was added to the plate. Different concentrations of each peptide and reference antibiotics were serially diluted in 10 μL of MHB and added to each well. The plate was incubated at 37°C for 6 h. Cation-adjusted MH broth (CAMHB) was used to culture E. faecalis. Subsequently, 10 μL of the coloring reagent was added, and cells were incubated at 37°C for 2 h. UV absorbance was measured for each well at 450 nm, using a microplate spectrophotometer (xMark spectrophotometer; Bio-Rad, Hercules, CA, United States). MIC values were determined when the difference in the optical density (OD) between treatments and blanks (media and coloring reagent only) decreased to < 0.05. Experiments were conducted in triplicate. […] The pH conditions were achieved by using acetic acid (Sigma Aldrich).

[2] = system: Salmonella typhimurium ATCC 14028; assay: microbe, parasite or virus in culture; format: cell-based; details: S. typhimurium ATCC 14028, MHB, 37°C 6 h + 2 h, triplicate
Protocol: as §1

[3] = system: Staphylococcus aureus ATCC 6538; assay: microbe, parasite or virus in culture; format: cell-based; details: S. aureus ATCC 6538, MHB, 37°C 6 h + 2 h, triplicate
Protocol: as §1

[4] = system: Bacillus cereus ATCC 10876; assay: microbe, parasite or virus in culture; format: cell-based; details: B. cereus ATCC 10876, MHB, 37°C 6 h + 2 h, triplicate
Protocol: as §1

[5] = system: Enterococcus faecalis ATCC 29212; assay: microbe, parasite or virus in culture; format: cell-based; details: E. faecalis ATCC 29212, CAMHB, 37°C 6 h + 2 h, triplicate
Protocol: as §1

[6] = system: Pseudomonas aeruginosa ATCC 27853; assay: microbe, parasite or virus in culture; format: cell-based; details: P. aeruginosa ATCC 27853, MHB, 37°C 6 h + 2 h, triplicate
Protocol: as §1

HEK293T = assay: Mammalian cell cytotoxicity, WST-1; format: cell-based, human; details: positive control for complete cell lysis, concentration not given
Protocol: (§2) Two mammalian cell lines, including human embryonic kidney cells (HEK293T) and human breast cancer cells (MCF7) were cultured in Dulbecco’s modified Eagle’s medium (DMEM; Hyclone^TM, Logan, UT, United States) supplemented with 10% FBS (Hyclone^TM) and 1% penicillin/streptomycin (Hyclone^TM) and incubated at 37°C and 5% CO2 up to 80% confluence. Cellular adherence to the substratum was disrupted using Accutase (Innovative Cell Technologies, San Diego, CA, United States). In total, 1 × 10^4 to 4 × 10^4 cells in each well of a 96-well plate containing 8, 16, 32, and 64 μg/mL of ModoCath peptides were incubated for 24 h at 37°C and 5% CO2. Additionally, HEK293T cells were incubated in the FBS-free medium. Triton X 100 (Sigma Aldrich) was used as a positive control for complete cell lysis, and untreated cells were used as the negative control. After incubation, the medium was removed from the wells, and 10 μL of coloring solution (Cell Proliferation Reagent WST-1^TM; Sigma Aldrich) and 100 μL of DMEM (Hyclone^TM) were added to the wells in accordance with the manufacturer’s protocol. Absorbance was measured for each well at 440 nm (peptide-treated and control) and 650 nm (background) and recorded as the OD, using a microplate reader (xMark^TM spectrophotometer; Bio-Rad). Cell viability was calculated using the following equation:
(§3) (1) CellViability(%)=100×(ODpeptide-ODbackground)/(ODnegative-ODbackground)
(§4) All experiments were performed in triplicate.

MCF7 = assay: Mammalian cell cytotoxicity, WST-1; format: cell-based, human; details: positive control for complete cell lysis, concentration not given
Protocol: as §2, §3, §4

[7] = system: Human primary keratinocytes; assay: Viability of keratinocytes, XTT; format: cell-based; details: positive control, concentration not given
From the text: The Ethics Committee of the Poitiers Hospital approved the use of human skin samples for research studies. All subjects provided written informed consent in accordance with the tenets of the Declaration of Helsinki. Normal abdominal or breast skin samples were obtained from patients undergoing plastic surgery and thoroughly washed with PBS free of calcium and magnesium (PBS; Gibco, Thermo Fisher Scientific, Waltham, MA, United States) after fat removal. The skin samples were minced into fragments of approximately 125 mm^2, using scalpel blades. Skin samples were incubated overnight at 4°C in a dispase solution (25 U/mL; Life Technologies, Carlsbad, CA, United States). Epidermal sheets were removed from the dermis, and keratinocytes were dissociated via trypsin digestion (trypsin-EDTA; Gibco) for 15 min at 37°C. The cell suspension was then filtered through a 280-μm sterile filter. DMEM (Gibco) supplemented with 10% (vol/vol) of FBS (Gibco) was added, and the suspension was centrifuged at 300 × g and 25°C for 10 min. Keratinocytes were seeded at a density of 10^7 cells in 75-cm^2 tissue culture flask in keratinocyte-serum free medium (K-SFM; Invitrogen, Carlsbad, CA, United States) supplemented with bovine pituitary extract (25 μg/mL; Invitrogen) and recombinant epidermal growth factor (EGF) (0.25 ng/mL; Invitrogen). The cultures were incubated at 37°C in a humidified atmosphere with 5% CO2 until 80% confluence and then stored frozen in liquid nitrogen until use. Finally, keratinocytes were seeded in sterile 24-well culture plates at 10^5 cells/well in K-SFM supplemented with bovine pituitary extract and EGF and cultured to 80% confluence. Cells were then starved overnight in K-SFM alone before stimulation.
Primary keratinocytes were cultured in 96-well plates at 4 × 10^4 cells per well in 0.1 mL K-SFM (Invitrogen) up to 80% confluence before being treated with various concentrations of ModoCath peptides for 24 h. Cell viability was assessed using the cell proliferation kit II (XTT; Roche, Basel, Switzerland) in accordance with the manufacturer’s protocol. The XTT labeling mixture was added after 24 h of incubation in the absence or presence of peptides at the indicated concentrations.

[8] = Escherichia coli, ATCC25922, read-out: MIC
[9] = Staphylococcus aureus, ATCC6538, read-out: MIC
[10] = Bacillus cereus, ATCC10876, read-out: MIC

Compound | MIC [1, 8] [µg/mL] | MIC [3, 9] [µg/mL] | MIC [4, 10] [µg/mL] | MIC [1] | MIC [3] | MIC [4] | also measured
CC1(C)S[C@@H]2[C@H](NC(=O)[C@H](N)c3ccccc3)C(=O)N2[C@H]1C(=O)O [Ampicillin, reference compound] | 1 | 1 | 16 |  |  |  | MIC ([2]; Salmonella enterica, read-out: MIC): 1 µg/mL; MIC ([5]; Enterococcus faecalis, ATCC29212, read-out: MIC): 2 µg/mL; MIC ([6]; Pseudomonas aeruginosa, ATCC27853, read-out: MIC): > 128 µg/mL
CN[C@H](CC(C)C)C(=O)N[C@H]1C(=O)N[C@@H](CC(N)=O)C(=O)N[C@H]2C(=O)N[C@H]3C(=O)N[C@H](C(=O)N[C@H](C(=O)O)c4cc(O)cc(O)c4-c4cc3ccc4O)[C@H](O)c3ccc(c(Cl)c3)Oc3cc2cc(c3O[C@@H]2O[C@H](CO)[C@@H](O)[C@H](O)[C@H]2O[C@H]2C[C@](C)(N)[C@H](O)[C@H](C)O2)Oc2ccc(cc2Cl)[C@H]1O [Vancomycin] | 32 | 5 | 4 |  |  |  | 
Nisin |  |  |  | > 32(9.54) μg/mL | 15 (4.47) μg/mL | 32 (9.54) μg/mL | 
Triton X-100 [reference compound] |  |  |  |  |  |  | Cell viability ± SD (HEK293T): 11.6 ± 2.5%; Cell viability ± SD (MCF7): 11.4 ± 0.4%; Cell viability ± SD [7]: 8.2 ± 0.4%
gentamicin sulfate [Gentamycin, reference compound] |  |  |  | 1 (2.09) μg/mL | 1 (2.09) μg/mL | 1 (2.09) μg/mL | MIC [2]: 1 (2.09) μg/mL; MIC [5]: 5 (10.45) μg/mL; MIC [6]: 1 (2.09) μg/mL
